This assay concerns the target T1, BCL6 (Homo sapiens, UniProt P41182).
T1 construct: endogenous in cells; host or cells: T47D breast cancer epithelial cells
The assay is described as follows: Immunofluorescence protocol for high content imaging of BCL6 (degradation) in T47D cells, 3 days compound treatment. Type of assay: cell-based. The settings on record: T47D cells, 3 days compound treatment; for DC50: read-out: Mean DC50 (nM)* category; for Dmax: read-out: Mean Dmax (%)** category. The procedure: Immunofluorescence Protocol for High Content Imaging of BCL6
T47D cells were seeded in 100 μl volume of RPMI1640-10% FBS in a 96-well black/clear bottom plates for adherent lines (Corning #3904).
Day 1. T47D breast cancer epithelial cells were seeded at a density so that confluence is ˜70-90% at endpoint. Cells were seeded at 7K/0.1 ml/well the morning prior to the addition of exemplary bifunctional degradation compounds.
Day 2. Prepare an 11 point 3-fold serial dilution of exemplary bifunctional compound in DMSO and aliquot an appropriate volume to cell growth media to generate a 2× final concentration of exemplary bifunctional compound. Add an equal volume (0.1 ml) of 2× exemplary bifunctional compound/media mix to previously plated cells, for a final top concentration in aqueous cell growth media of 0.1 or 1 μM. Incubate for 3 days at 37° C., 5% CO2.
Day 5 Immunofluorescence. Discard cell media. Wash wells with 200 μl of room temperature phosphate-buffered saline (PBS). Prepared 4% paraformaldehyde (PFA) from 16% PFA (Electron Microscopy Sciences #15710) using 1×PBS. Fifty μl of 4% PF was added to each well and incubate for 15 minutes at room temperature to fix the cells. The PFA was aspirated and the cells washed twice with PBS (200 μl)).
Prepared 0.1% Triton X-100 in PBS using 10% triton X-100 stock. The cells were permeabilized by adding 100 ul of the 0.1% Triton X-100 in PBS to each well to permeabilize cells and incubating at room temperature for 15 minutes. Cells were washed twice with PBS.
Prepared 3% BSA/PBS (from Thermofisher #37515 Blocker BSA in TBS, 10%), and 100 ul was added to each well. The cells were incubated for at least 1 hour at room temperature.
Prepared 1% BSA/PBS using Blocker BSA/PBS, and the 3% BSA/PBS removed from the wells.
For no primary antibody controls, 50 μl 1% BSA/PBS was added.
Primary antibody (BCL6 Rb Ab, CST-14895, Cell Signaling) was diluted 1:300 in 1% BSA/PBS using Blocker BSA/PBS.
Fifty μl of primary antibody added to all remaining wells (i.e., all wells other than the primary antibody controls) and the cells were incubated overnight at 4° C. with slow orbital movement.
Day 6. Contents of the wells was removed and the cells washed four times with 200 ul PBS. 1% BSA/PBS was prepared using Blocker BSA in PBS.
Diluted secondary antibody goat anti-Rb IgG Alexa-488 1:1000, and cell mask-Alexa-647 1:3000 in 1% BSA/PBS in the same mix. Add 50 μl to each well and incubate at room temperature for 1 hour in the dark.
Cells were washed three times with 200 ul PBS, and then incubated for 10 minutes with 100 ul Hoechst dye at 1 μg/mL (20 mM stock) to stain cell nuclei. Wells were then washed with 200 μl PBS, and 100 ul of PBS was added to each well and the plate covered plate with a plastic opaque cover. Plates were stored at 4° C. and covered in aluminum foil until imaged.
Plates were equilibrated to room temperature prior to reading. The bottom of the plate was wiped with 70% isopropanol immediately prior to imaging.
10×, 4 fields/well, include Top hat smoothing in the analysis protocol.
16% paraformaldehyde: Electron Microscopy Sciences #15710
Hoechst: Thermofisher #62249
Blocker BSA in PBS, 10%: Thermofisher #37515
Blocker BSA in TBS, 10%: Thermofisher #37520
Goat anti-rabbit or mouse AlexaFluor-488: Thermofisher #A11008
Cell mask deep red AlexaFluor-647: Thermofisher #C10046
Wash buffer, PBS: 20×PBS, Thermofisher

A value given as a limit tells only on which side of the number the result lay.

As for `CNC(=O)COc1cc2cc(Nc3nc(N4CCC(O[C@H]5C[C@H](N6CC[C@H](c7ccc8c(c7)C(=O)N(C7CCC(=O)NC7=O)C8=O)[C@H](F)C6)C5)CC4)ncc3Cl)ccc2n(C(C)C)c1=O` (mixture of isomers) [Compound 118], the half-maximal degradation concentration (DC50) fell in the range of 10 to 50 nM and the Dmax lay within 50 to 70%.

For `CNC(=O)COc1cc2cc(Nc3nc(N4CCC(O[C@H]5C[C@H](N6CC[C@H](c7ccc8c(c7)CN(C7CCC(=O)NC7=O)C8=O)[C@H](F)C6)C5)CC4)ncc3Cl)ccc2n(C(C)C)c1=O` (mixture of isomers) [Compound 131], the half-maximal degradation concentration (DC50) is less than 10 nM and the Dmax was in the range of 50 to 70%.

`CNC(=O)COc1cc2cc(Nc3nc(N4CCC(O[C@H]5C[C@H](N6CC[C@H](c7ccc8c(c7)C(=O)N(C7CCC(=O)NC7=O)C8)[C@H](F)C6)C5)CC4)ncc3Cl)ccc2n(C(C)C)c1=O` (mixture of isomers) [Compound 132]: the DC50 is less than 10 nM and the Dmax was 50 to 70%.

For the compound `CNC(=O)COc1cc2cc(Nc3nc(N4CCC(O[C@H]5C[C@H](N6C[C@@H](C)N(c7ccc8c(c7)CN(C7CCC(=O)NC7=O)C8=O)[C@H](C)C6)C5)CC4)ncc3Cl)ccc2n(C(C)C)c1=O` (relative stereo) [Compound 179, 2-({6-[(5-chloro-2-{4-[(1r,3r)-3-[(3R*,5R*)-4-[2-(2,6-dioxopiperidin-3-yl)-1-oxo-2,3-dihydro-1H-isoindol-5-yl]-3,5-dimethylpiperazin-1-yl]cyclobutoxy]piperidin-1-yl}pyrimidin-4-yl)amino]-2-oxo-1-(propan-2-yl)-1,2-dihydroquinolin-3-yl}oxy)-N-methylacetamide], the half-maximal degradation concentration (DC50) was less than 10 nM and the greatest degradation seen (Dmax) is no less than 70%.

In the case of `CNC(=O)COc1cc2cc(Nc3nc(N4CCC(O[C@H]5C[C@H](N6C[C@H](C)N(c7ccc8c(c7)CN(C7CCC(=O)NC7=O)C8=O)[C@@H](C)C6)C5)CC4)ncc3Cl)ccc2n(C(C)C)c1=O` (relative stereo) [Compound 180, 2-({6-[(5-chloro-2-{4-[(1r,3r)-3-[(3R*,5R*)-4-[2-(2,6-dioxopiperidin-3-yl)-1-oxo-2,3-dihydro-1H-isoindol-5-yl]-3,5-dimethylpiperazin-1-yl]cyclobutoxy]piperidin-1-yl}pyrimidin-4-yl)amino]-2-ox0-1-(propan-2-yl)-1,2-dihydroquinolin-3-yl}oxy)-N-methylacetamide], the DC50 was less than 10 nM and the Dmax was no less than 70%.

With `CNC(=O)COc1cc2cc(Nc3nc(N4CCC(OC5CN([C@H]6CC[C@H](c7ccc8c(c7)CN(C7CCC(=O)NC7=O)C8=O)CC6)C5)CC4)ncc3Cl)ccc2n(C(C)C)c1=O` (single isomer, unassigned) [Compound 165, 2-((6-((5-chloro-2-(4-((1-((1r,4r)-4-(2-(2,6-dioxopiperidin-3-yl)-1-oxoisoindolin-5-yl)cyclohexyl)azetidin-3-yl)oxy)piperidin-1-yl)pyrimidin-4-yl)amino)-1-isopropyl-2-oxo-1,2-dihydroquinolin-3-yl)oxy)-N-methylacetamide], the half-maximal degradation concentration (DC50) was less than 10 nM and the greatest degradation seen (Dmax) lay within 50 to 70%.

Take `CNC(=O)COc1cc2cc(Nc3nc(N4CCC(OC5CN([C@H]6CC[C@@H](c7ccc8c(c7)CN(C7CCC(=O)NC7=O)C8=O)CC6)C5)CC4)ncc3Cl)ccc2n(C(C)C)c1=O` (single isomer, unassigned) [Compound 166, 2-[[6-[[5-chloro-2-[4-[1-[4-[2-(2,6-dioxo-3-piperidyl)-1-oxo-isoindolin-5-yl]cyclohexyl]azetidin-3-yl]oxy-1-piperidyl]pyrimidin-4-yl]amino]-1-isopropyl-2-oxo-3-quinolyl]oxy]-N-methyl-acetamide]: the half-maximal degradation concentration (DC50) was less than 10 nM and the maximal degradation (Dmax) is 50 to 70%.

For `CNC(=O)COc1cc2cc(Nc3nc(N4CCC(O[C@H]5C[C@H](N6CCN(c7ccc8c(n7)C(C)N(C7CCC(=O)NC7=O)C8=O)[C@H](C)C6)C5)CC4)ncc3Cl)ccc2n(C(C)C)c1=O` (stereo in doubt) [Compound 203, 2-({6-[(5-chloro-2-{4-[(1r,3r)-3-[(3R)-4-[6-(2,6-dioxopiperidin-3-yl)-7-methyl-5-oxo-5H,6H, 7H-pyrrolo[3,4-b]pyridin-2-yl]-3-methylpiperazin-1-yl]cyclobutoxy]piperidin-1-yl}pyrimidin-4-yl)amino]-2-oxo-1-(propan-2-yl)-1,2-dihydroquinolin-3-yl}oxy)-N-methylacetamide], the DC50 is less than 10 nM and the maximal degradation (Dmax) was no less than 70%.

With `CNC(=O)COc1cc2cc(Nc3nc(N4CCC(CN5CC[C@]6(CCN(c7ccc8c(c7)CN([C@H]7CCC(=O)NC7=O)C8=O)C6)C5)CC4)ncc3Cl)ccc2n(C(C)C)c1=O` [Compound 1, 2-[(6-{[5-chloro-2-(4-{[(5S)-7-{2-[(3S)-2,6-dioxopiperidin-3-yl]-1-oxo-2,3-dihydro-1H-isoindol-5-yl}-2,7-diazaspiro[4.4]nonan-2-yl]methyl}piperidin-1-yl)pyrimidin-4-yl]amino}-2-oxo-1-(propan-2-yl)-1,2-dihydroquinolin-3-yl)oxy]-N-methylacetamide], the 50% degradation concentration (DC50) is less than 10 nM and the Dmax fell in the range of 50 to 70%.

Consider `CNC(=O)COc1cc2cc(Nc3nc(N4CCC(CN5CC[C@]6(CCN(c7ccc8c(c7)CN([C@@H]7CCC(=O)NC7=O)C8=O)C6)C5)CC4)ncc3Cl)ccc2n(C(C)C)c1=O` [Compound 2, 2-[(6-{[5-chloro-2-(4-{[(5S)-7-{2-[(3R)-2,6-dioxopiperidin-3-yl]-1-oxo-2,3-dihydro-1H-isoindol-5-yl}-2,7-diazaspiro[4.4]nonan-2-yl]methyl}piperidin-1-yl)pyrimidin-4-yl]amino}-2-oxo-1-(propan-2-yl)-1,2-dihydroquinolin-3-yl)oxy]-N-methylacetamide], for which the DC50 is less than 10 nM and the Dmax is no less than 70%.

Regarding `CNC(=O)COc1cc2cc(Nc3nc(N4CCC5(CCN(CC6CCN(c7ccc8c(c7)CN(C7CCC(=O)NC7=O)C8=O)CC6)C5)C4)ncc3Cl)ccc2n(C(C)C)c1=O` (centres unmarked) [Compound 3, 2-{[6-({5-chloro-2-[7-({1-[2-(2,6-dioxopiperidin-3-yl)-1-oxo-2,3-dihydro-1H-isoindol-5-yl]piperidin-4-yl}methyl)-2,7-diazaspiro[4.4]nonan-2-yl]pyrimidin-4-yl}amino)-2-oxo-1-(propan-2-yl)-1,2-dihydroquinolin-3-yl]oxy}-N-methylacetamide], the DC50 was less than 10 nM and the greatest degradation seen (Dmax) fell in the range of 50 to 70%.

On to `CNC(=O)COc1cc2cc(Nc3nc(N4CCC5(CCN(CC6CCN(c7ccc8c(c7)C(=O)N(C7CCC(=O)NC7=O)C8=O)CC6)C5)C4)ncc3Cl)ccc2n(C(C)C)c1=O` (centres unmarked) [Compound 4, 2-{[6-({5-chloro-2-[7-({1-[2-(2,6-dioxopiperidin-3-yl)-1,3-dioxo-2,3-dihydro-1H-isoindol-5-yl]piperidin-4-yl}methyl)-2,7-diazaspiro[4.4]nonan-2-yl]pyrimidin-4-yl}amino)-2-oxo-1-(propan-2-yl)-1,2-dihydroquinolin-3-yl]oxy}-N-methylacetamide], for which the DC50 was in the range of 10 to 50 nM and the Dmax is less than 50%.

Turning to `CCn1c(=O)c(OCC(=O)NC)cc2cc(Nc3nc(N4CCC(O[C@H]5C[C@H](N6CCC(c7ccc8c(c7)C(=O)N(C7CCC(=O)NC7=O)C8=O)CC6)C5)CC4)ncc3Cl)ccc21` (some centres unmarked) [Compound 5, 2-[[6-[[5-chloro-2-[4-[3-[4-[2-(2,6-dioxo-3-piperidyl)-1,3-dioxo-isoindolin-5-yl]-1-piperidyl]cyclobutoxy]-1-piperidyl]pyrimidin-4-yl]amino]-1-ethyl-2-oxo-3-quinolyl]oxy]-N-methyl-acetamide], the DC50 is less than 10 nM and the Dmax was no less than 70%.
